Measured values published in US20150005281A1, “PYRIMIDINE-2,4-DIAMINE DERIVATIVES AS KINASE INHIBITORS” (Cellzome Limited, priority 2011, published 2015).

Columns and labels:
Assay type in all cases: binding
TYK2 = target: T1, TYK2 (Homo sapiens, UniProt P29597); test: Kinobeads assay with immunodetection, TYK2; settings: for IC50: Kinobeads assay, mixed Molt4/Ramos lysate, read-out: Inhibition values (IC50) Tyk2
T1 construct: endogenous in cells; host or cells: Molt4 (ATCC CRL-1582) and Ramos (ATCC CRL-1596) cells; mixed lysate 1:2
T1 sequence (P29597 whole entry): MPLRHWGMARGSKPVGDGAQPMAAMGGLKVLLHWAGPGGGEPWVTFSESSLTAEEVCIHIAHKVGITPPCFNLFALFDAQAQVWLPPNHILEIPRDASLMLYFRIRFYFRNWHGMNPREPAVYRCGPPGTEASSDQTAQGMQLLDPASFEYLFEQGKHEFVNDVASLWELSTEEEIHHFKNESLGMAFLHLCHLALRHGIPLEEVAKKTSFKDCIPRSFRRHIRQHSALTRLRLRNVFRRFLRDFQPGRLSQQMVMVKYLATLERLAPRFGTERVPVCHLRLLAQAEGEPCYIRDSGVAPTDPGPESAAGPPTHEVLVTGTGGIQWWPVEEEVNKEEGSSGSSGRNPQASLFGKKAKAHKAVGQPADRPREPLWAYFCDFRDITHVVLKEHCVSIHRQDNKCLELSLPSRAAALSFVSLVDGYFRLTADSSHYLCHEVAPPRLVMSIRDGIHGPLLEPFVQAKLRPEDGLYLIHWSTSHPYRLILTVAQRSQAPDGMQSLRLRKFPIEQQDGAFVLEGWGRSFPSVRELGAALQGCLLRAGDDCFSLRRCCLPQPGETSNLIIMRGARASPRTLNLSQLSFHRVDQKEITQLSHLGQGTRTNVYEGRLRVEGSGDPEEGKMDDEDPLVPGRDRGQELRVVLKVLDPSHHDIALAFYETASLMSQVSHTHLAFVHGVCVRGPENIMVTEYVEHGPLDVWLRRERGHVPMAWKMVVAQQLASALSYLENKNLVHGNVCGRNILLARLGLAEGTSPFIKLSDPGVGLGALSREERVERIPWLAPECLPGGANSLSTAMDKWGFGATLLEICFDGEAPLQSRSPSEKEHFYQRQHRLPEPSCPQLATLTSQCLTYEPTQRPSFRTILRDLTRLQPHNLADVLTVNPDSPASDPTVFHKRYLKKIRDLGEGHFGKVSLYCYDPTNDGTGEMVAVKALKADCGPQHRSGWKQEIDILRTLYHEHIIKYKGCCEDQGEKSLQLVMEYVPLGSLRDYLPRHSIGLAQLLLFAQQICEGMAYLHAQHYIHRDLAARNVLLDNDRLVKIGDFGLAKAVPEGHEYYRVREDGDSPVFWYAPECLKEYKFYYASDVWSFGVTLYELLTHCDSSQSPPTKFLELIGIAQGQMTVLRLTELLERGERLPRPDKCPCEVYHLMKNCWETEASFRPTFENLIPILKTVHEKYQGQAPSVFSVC
Outline: (§1)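 Molt4 plus Ramos lysate (1:2), 10 mg/mL, mixed with compound dilutions (1:3 series from 5 mM DMSO stock) and kinobeads; 3 h, cold room. Bead-bound JAKs eluted, dot blot immunodetection, IC50 from dose-response.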

JAK3 = target: T2, JAK3 (Homo sapiens, UniProt P52333); test: Kinobeads assay with immunodetection, JAK3; settings: for IC50: Kinobeads assay, mixed Molt4/Ramos lysate, read-out: Inhibition values (IC50) JAK3
T2 construct: endogenous in cells; host or cells: Molt4 (ATCC CRL-1582) and Ramos (ATCC CRL-1596) cells; mixed lysate 1:2
T2 sequence (P52333 1-1124): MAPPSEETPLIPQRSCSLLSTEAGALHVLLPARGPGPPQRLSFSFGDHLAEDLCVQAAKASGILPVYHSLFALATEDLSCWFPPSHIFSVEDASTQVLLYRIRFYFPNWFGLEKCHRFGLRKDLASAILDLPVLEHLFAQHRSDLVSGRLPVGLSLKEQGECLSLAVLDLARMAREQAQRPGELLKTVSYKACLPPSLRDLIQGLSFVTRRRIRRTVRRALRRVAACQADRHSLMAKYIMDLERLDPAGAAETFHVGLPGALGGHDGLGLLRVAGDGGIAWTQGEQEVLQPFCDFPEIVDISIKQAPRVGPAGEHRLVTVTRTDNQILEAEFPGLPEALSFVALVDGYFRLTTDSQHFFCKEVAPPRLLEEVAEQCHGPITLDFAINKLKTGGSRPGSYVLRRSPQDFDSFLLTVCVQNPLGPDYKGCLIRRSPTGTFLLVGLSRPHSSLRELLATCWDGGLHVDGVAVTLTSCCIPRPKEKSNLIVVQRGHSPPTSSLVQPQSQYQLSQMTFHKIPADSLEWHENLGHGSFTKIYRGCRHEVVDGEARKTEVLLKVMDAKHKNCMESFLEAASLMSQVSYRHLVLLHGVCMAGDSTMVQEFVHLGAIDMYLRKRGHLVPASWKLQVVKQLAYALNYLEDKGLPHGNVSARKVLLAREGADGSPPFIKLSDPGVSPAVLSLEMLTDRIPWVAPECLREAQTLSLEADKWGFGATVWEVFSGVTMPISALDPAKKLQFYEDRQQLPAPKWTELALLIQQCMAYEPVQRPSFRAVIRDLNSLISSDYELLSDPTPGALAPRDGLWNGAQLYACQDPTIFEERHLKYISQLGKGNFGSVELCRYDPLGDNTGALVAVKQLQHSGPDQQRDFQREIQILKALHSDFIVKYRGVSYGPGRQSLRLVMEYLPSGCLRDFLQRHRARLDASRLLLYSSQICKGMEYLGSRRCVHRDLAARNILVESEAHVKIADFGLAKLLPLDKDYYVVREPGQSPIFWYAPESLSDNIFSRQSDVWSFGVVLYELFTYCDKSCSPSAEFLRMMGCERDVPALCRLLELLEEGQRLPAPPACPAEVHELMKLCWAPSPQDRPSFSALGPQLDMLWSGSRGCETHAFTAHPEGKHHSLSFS
Outline: as §1

JAK1 = target: T3, JAK1 (Homo sapiens, UniProt P23458); test: Kinobeads assay with immunodetection, JAK1; settings: for IC50: Kinobeads assay, mixed Molt4/Ramos lysate, read-out: Inhibition values (IC50) JAK1
T3 construct: endogenous in cells; host or cells: Molt4 (ATCC CRL-1582) and Ramos (ATCC CRL-1596) cells; mixed lysate 1:2
T3 sequence (P23458 whole entry): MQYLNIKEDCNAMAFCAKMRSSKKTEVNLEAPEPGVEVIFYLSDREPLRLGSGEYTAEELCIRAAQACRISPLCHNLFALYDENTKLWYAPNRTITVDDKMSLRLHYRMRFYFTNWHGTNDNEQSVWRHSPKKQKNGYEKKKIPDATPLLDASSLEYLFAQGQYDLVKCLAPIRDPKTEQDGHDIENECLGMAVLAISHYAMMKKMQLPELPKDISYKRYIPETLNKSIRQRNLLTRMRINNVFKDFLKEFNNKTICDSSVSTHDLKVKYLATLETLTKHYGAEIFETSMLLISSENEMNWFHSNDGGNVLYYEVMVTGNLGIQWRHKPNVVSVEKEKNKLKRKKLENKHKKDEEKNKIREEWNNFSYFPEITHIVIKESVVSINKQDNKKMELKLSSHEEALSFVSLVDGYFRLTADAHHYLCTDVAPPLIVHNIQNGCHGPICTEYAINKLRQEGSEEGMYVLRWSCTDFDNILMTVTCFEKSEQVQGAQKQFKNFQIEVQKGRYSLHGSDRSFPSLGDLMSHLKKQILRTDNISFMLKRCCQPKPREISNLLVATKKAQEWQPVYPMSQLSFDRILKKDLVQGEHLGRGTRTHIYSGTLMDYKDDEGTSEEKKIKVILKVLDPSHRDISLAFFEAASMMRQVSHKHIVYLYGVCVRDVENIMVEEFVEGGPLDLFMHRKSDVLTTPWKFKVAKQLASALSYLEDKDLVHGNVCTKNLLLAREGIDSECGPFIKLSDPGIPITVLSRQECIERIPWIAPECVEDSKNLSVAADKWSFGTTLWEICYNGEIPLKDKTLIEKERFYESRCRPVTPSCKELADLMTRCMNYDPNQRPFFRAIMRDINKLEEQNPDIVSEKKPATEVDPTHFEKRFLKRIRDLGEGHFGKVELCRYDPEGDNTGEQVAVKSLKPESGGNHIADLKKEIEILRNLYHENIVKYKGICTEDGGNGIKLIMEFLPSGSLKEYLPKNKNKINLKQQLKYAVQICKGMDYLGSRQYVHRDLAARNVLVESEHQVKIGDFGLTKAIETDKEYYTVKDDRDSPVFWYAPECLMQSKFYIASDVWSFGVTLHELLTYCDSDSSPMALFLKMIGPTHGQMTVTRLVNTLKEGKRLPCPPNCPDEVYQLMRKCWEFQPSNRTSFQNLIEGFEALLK
Outline: as §1

JAK2 = target: T4, JAK2 (Homo sapiens, UniProt O60674); test: Kinobeads assay with immunodetection, JAK2; settings: mixed Molt4/Ramos lysate, read-out: Inhibition values (IC50) JAK2
T4 construct: endogenous in cells; host or cells: Molt4 (ATCC CRL-1582) and Ramos (ATCC CRL-1596) cells; mixed lysate 1:2
T4 sequence (O60674 whole entry): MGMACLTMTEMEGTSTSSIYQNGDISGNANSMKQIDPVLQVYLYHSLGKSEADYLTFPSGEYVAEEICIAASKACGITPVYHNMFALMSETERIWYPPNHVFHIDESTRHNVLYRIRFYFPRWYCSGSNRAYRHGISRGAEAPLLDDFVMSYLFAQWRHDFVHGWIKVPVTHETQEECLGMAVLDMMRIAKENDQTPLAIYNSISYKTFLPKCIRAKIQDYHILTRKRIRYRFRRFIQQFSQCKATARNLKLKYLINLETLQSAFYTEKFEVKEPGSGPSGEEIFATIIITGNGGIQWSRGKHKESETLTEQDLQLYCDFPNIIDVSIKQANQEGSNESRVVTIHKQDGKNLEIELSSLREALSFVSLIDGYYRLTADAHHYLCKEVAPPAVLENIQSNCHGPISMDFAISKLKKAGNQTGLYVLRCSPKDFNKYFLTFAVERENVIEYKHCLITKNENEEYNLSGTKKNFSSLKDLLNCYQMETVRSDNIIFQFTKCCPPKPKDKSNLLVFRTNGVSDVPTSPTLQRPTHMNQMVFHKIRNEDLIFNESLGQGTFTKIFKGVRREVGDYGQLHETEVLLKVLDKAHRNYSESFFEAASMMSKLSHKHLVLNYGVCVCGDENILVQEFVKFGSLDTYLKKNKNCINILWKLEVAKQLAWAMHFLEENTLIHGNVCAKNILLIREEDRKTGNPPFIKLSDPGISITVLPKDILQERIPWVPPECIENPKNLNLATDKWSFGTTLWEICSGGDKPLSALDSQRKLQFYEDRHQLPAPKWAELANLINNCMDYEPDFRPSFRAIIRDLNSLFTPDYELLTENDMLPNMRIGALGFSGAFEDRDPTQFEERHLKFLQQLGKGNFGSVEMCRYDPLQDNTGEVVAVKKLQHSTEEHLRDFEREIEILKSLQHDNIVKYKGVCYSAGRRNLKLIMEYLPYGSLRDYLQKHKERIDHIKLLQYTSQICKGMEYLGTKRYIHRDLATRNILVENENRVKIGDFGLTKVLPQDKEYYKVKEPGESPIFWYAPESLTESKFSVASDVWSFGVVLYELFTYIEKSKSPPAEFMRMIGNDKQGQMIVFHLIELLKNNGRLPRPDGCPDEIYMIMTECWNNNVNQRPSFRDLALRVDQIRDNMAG
Outline: as §1

With `C=CS(=O)(=O)N1CCC[C@H]1CNc1nc(Nc2cnn(C)c2)ncc1Cl` [Example 14, (S)-5-chloro-N^2-(1-methyl-1H-pyrazol-4-yl)-N^4-((1-(vinylsulfonyl)pyrrolidin-2-yl)methyl)pyrimidine-2,4-diamine] the IC50 (TYK2) was less than 100 nM, the “Selectivity ratio over JAK2, Tyk2” value (TYK2) was “Tyk2 = 14” and the IC50 (JAK3) was less than 100 nM. It also gave an IC50 (JAK1) of 100 to 1000 nM and an IC50 (JAK2) of 1000 to 10000 nM.

With `CC(C)NC(=O)Cn1cc(Nc2nccc(NC[C@H]3CCCN3CCS(C)(=O)=O)n2)cn1` [Example 84, (R)—N-isopropyl-2-(4-((4-(((1-(2-(methylsulfonyl)ethyl)pyrrolidin-2-yl)methyl)amino)pyrimidin-2-yl)amino)-1H-pyrazol-1-yl)acetamide] the IC50 (TYK2) was less than 100 nM, the “Selectivity ratio over JAK2, Tyk2” value (TYK2) was “Tyk2 = 435” and the IC50 (JAK3) was 100 to 1000 nM. For the same molecule, the IC50 (JAK1) was 100 to 1000 nM and the IC50 (JAK2) was greater than 10000 nM.

In the case of `Cc1cnc(Nc2cnn(CC(F)F)c2)nc1NC[C@@H]1CCCN1C(=O)CC#N` [Example 124, (S)-3-(2-(((2-((1-(2,2-difluoroethyl)-1H-pyrazol-4-yl)amino)-5-methylpyrimidin-4-yl)amino)methyl)pyrrolidin-1-yl)-3-oxopropanenitrile], the IC50 (TYK2) is reported as less than 100 nM, the IC50 (JAK3) is reported as 100 to 1000 nM and the “Selectivity ratio over JAK2, JAK1” value (JAK1) is reported as “JAK1 = 101”. For the same molecule, the IC50 (JAK1) was less than 100 nM and the IC50 (JAK2) was 1000 to 10000 nM.

With `CS(=O)(=O)N1CCC[C@@H]1CNc1nc(Nc2cnn(CCO)c2)ncc1Cl` [Example 6, (R)-2-(4-((5-chloro-4-(((1-(methylsulfonyl)pyrrolidin-2-yl)methyl)amino)pyrimidin-2-yl)amino)-1H-pyrazol-1-yl)ethanol] the IC50 (TYK2) was less than 100 nM, the “Selectivity ratio over JAK2, Tyk2” value (TYK2) was “Tyk2 = 11” and the IC50 (JAK3) was less than 100 nM. It also gave an IC50 (JAK1) of less than 100 nM and an IC50 (JAK2) of 100 to 1000 nM.

With `C=CC(=O)N1CC[C@H](CNc2nc(Nc3cnn(C)c3)ncc2Cl)C1` [Example 22, (R)-1-(3-(((5-chloro-2-((1-methyl-1H-pyrazol-4-yl)amino)pyrimidin-4-yl)amino)methyl)pyrrolidin-1-yl)prop-2-en-1-one] the IC50 (TYK2) was 100 to 1000 nM, the “Selectivity ratio over JAK2, JAK3” value (JAK3) was “JAK3 = 610” and the IC50 (JAK3) was less than 100 nM. It also gave an IC50 (JAK1) of 100 to 1000 nM and an IC50 (JAK2) of 1000 to 10000 nM.

For `Cn1cc(Nc2ncc(Cl)c(NC[C@@H]3CCCN(C(=O)CCC#N)C3)n2)cn1` [Example 136, (S)-4-(3-(((5-chloro-2-((1-methyl-1H-pyrazol-4-yl)amino)pyrimidin-4-yl)amino)methyl)piperidin-1-yl)-4-oxobutanenitrile], the IC50 (TYK2) was 100 to 1000 nM, the “Selectivity ratio over JAK2, JAK3” value (JAK3) was “JAK3 = 78” and the IC50 (JAK3) was less than 100 nM. The IC50 (JAK1) was 100 to 1000 nM and the IC50 (JAK2) was 100 to 1000 nM.

For `Cn1cc(Nc2nccc(NC[C@H]3CCCN3C(=O)CCC#N)n2)cn1` [Example 93, (R)-4-(2-(((2-((1-methyl-1H-pyrazol-4-yl)amino)pyrimidin-4-yl)amino)methyl)pyrrolidin-1-yl)-4-oxobutanenitrile], the IC50 (TYK2) was less than 100 nM, the “Selectivity ratio over JAK2, Tyk2” value (TYK2) was “Tyk2 = 145” and the IC50 (JAK3) was 1000 to 10000 nM. It also gave an IC50 (JAK1) of less than 100 nM and an IC50 (JAK2) of 1000 to 10000 nM.

With `CC(C)NC(=O)Cn1cc(Nc2nccc(NC[C@H]3CCCN3C(=O)CCC#N)n2)cn1` [Example 94, (R)-2-(4-((4-(((1-(3-cyanopropanoyl)pyrrolidin-2-yl)methyl)amino)pyrimidin-2-yl)amino)-1H-pyrazol-1-yl)-N-isopropylacetamide] the IC50 (TYK2) was less than 100 nM, the “Selectivity ratio over JAK2, Tyk2” value (TYK2) was “Tyk2 = 609” and the IC50 (JAK3) was 1000 to 10000 nM. It also gave an IC50 (JAK1) of 100 to 1000 nM and an IC50 (JAK2) of 1000 to 10000 nM.

With `Cc1cnc(Nc2cnn(CC(F)F)c2)nc1NC[C@@H]1C[C@H](F)CN1CCS(C)(=O)=O` [Example 120, N^2-(1-(2,2-difluoroethyl)-1H-pyrazol-4-yl)-N^4-(((2S,4S)-4-fluoro-1-(2-(methylsulfonyl)ethyl)pyrrolidin-2-yl)methyl)-5-methylpyrimidine-2,4-diamine] the IC50 (TYK2) was 100 to 1000 nM, the IC50 (JAK3) was 1000 to 10000 nM and the “Selectivity ratio over JAK2, JAK1” value (JAK1) was “JAK1 = 81”. It also gave an IC50 (JAK1) of less than 100 nM and an IC50 (JAK2) of 1000 to 10000 nM.
